Reference: patent US9335538B2, “Electrowetting display device and dye composition for electrowetting display” (FUJIFILM CORPORATION, priority 2012, dated 2016)

Key:
Format in all cases: physicochemical
[1] = Absorption maximum wavelength, absorbance and absorption coefficient of colored solution (visible absorptiometer); details: 0.01% by mass normal decane solution
Description: (§1) A methine dye (the above-described exemplary compounds 5, 15, and 23 shown in Table 1 below were prepared) and normal decane (n-decane) which is an organic solvent were mixed. In this way, three kinds of 0.01% by mass normal decane solutions (colored compositions) each colored with a methine dye were prepared.
(§2) With regard to each of the colored solutions thus prepared, the hue, absorption maximum wavelength (λmax), absorbance (abs), and absorption coefficient (∈) were measured and evaluated according to the methods described below. Further, with regard to each of the dyes described below, the solubility (% by mass) with respect to normal hexane (n-hexane) was measured and evaluated according to the method described below.
(2) Absorption Maximum Wavelength, Absorbance, and Absorption Coefficient
With regard to the colored solutions (colored compositions), the absorption maximum wavelength (λmax) and the absorbance were measured using a visible absorptiometer (trade name: UV-1800PC, manufactured by Shimadzu Corp.), and the absorption coefficient (∈) was calculated based on the Lambert-Beer law.

[2] = Solubility with respect to hexane
Description: (3) Solubility with Respect to Hexane
The solubility of each methine dye with respect to normal hexane (n-hexane) which is a nonpolar solvent was measured in a manner as described below.
The dye was dissolved in normal hexane heated to 50° C. to prepare a saturated solution. Thereafter, the saturated solution thus obtained was left for one hour under an environment of 25° C. and 0.1 MPa.

[3] = Hue of colored solution, visual observation; details: 0.01% by mass normal decane solution, visually observed
Description: as §1, §2
(1) Hue Each of the colored solutions (colored compositions) was visually observed, and the hue thereof was judged.

Absorbance (abs) [1]: 0.525
Absorption maximum wavelength (λmax) [1]: 441 nm
Absorption coefficient (ε) ([1]; calculated based on the Lambert-Beer law): 3.20 × 10^4
solubility with respect to hexane (in words) ([2]; hexane, a hydrocarbon solvent): high solubility
Solubility in hexane (%) ([2]; n-hexane, 25° C. and 0.1 MPa, % by mass): 40 or more %
Color of solution [3]: yellow
Structure (SMILES): CCCCCCC(Oc1ccc(C(C)(C)CC)cc1C(C)(C)CC)C(=O)NCC(C)c1nc2/c(=C\c3c(C)nn4nc(C(C)CNC(=O)C(CCCCCC)Oc5ccc(C(C)(C)CC)cc5C(C)(C)CC)[nH]c34)c(C)nn2n1 (stereo not drawn) [Exemplary compound 5]
